These results are taken from patent EP4737449A1 (Changchun Genescience Pharmaceutical Co., Ltd., priority 2023, dated 2025).

The target in one assay is T1, p53-Y220C mutant protein (Homo sapiens, UniProt P04637, Y220C).
T1 construct: The recombinant Y220C p53 DBD protein with his-tag
Description: In vitro DNA binding activity assay (TR-FRET). Type of assay: biochemical. The conditions noted are these: concentration required to increase the binding activity of protein to DNA by 50%. In outline:
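His-tagged Y220C p53 DBD was equilibrated with compound 60 min at room temperature, then biotin-DNA, anti-6His-Eu and streptavidin-d2 were added and incubated overnight in the dark. TR-FRET 665/615 nm ratio, background-corrected, was expressed as % activity versus vehicle; SC150 is the concentration raising DNA binding by 50%.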

Another assay deals with NUGC-3 cells. Description: NUGC-3 cell proliferation assay (CTG, 7 days). As to conditions: Homo sapiens, NUGC-3, 168 h. The class given is cell-based, human. How it is done:
The cells were cultured in strict accordance with ATCC requirements.
Cell culture medium: 1640 culture medium, 10% serum, 1% penicillin + streptomycin.
Culture conditions: 37°C, 95% air, 5% carbon dioxide.
Compounds (20 mM) were subjected to gradient dilution in DMSO: 10 gradients, 3-fold dilution, duplicate wells.
Positive and negative controls (100% dimethyl sulfoxide) were prepared.
The compounds that were gradient diluted with DMSO and positive and negative controls (1st and 2nd step), each 75 nL, were transferred to 384-well cell culture plates by Echo550.
The cells were washed twice with PBS, digested with trypsin, and centrifuged for cell counting.
The experiment can only be carried out when the cell viability is above 90%.
The cells were plated into 384-well cell culture plates, with 200 (NUGC-3) cells and 30 µL of culture medium per well.
The 384-well microplate was placed in a cell culture incubator for 7 days.
30 µL of CTG detection reagent was added to the 384-well microplate.
The 384-well microplate was incubated for 30 min at 37°C, 5% carbon dioxide in the dark.
The reading was performed by a multi-functional microplate reader Envision.
% Inhibition is calculated as follows: % Inhibition = 100−(Signalcmpd−SignalAve_BL)/(SignalAve_VC−SignalAve_BL)*100 [formula] • Signalcmpd: Average signal of the compound in the cell plate • Signalave_vc: Average signal of the negative control in the cell plate • Signalave_BL: Average signal of the blank wells in the cell plate
IC50 was calculated by fitting % inhibition and compound concentration logarithmically to a nonlinear regression (dose response - variable slope) using Graphpad 8.0. Table 2 IC50 of selected compounds in NUGC-3 cell proliferation assay

[1] abbreviates: NUGC-3 cell proliferation, 7 days, CTG, read-out: IC50.

The structures appear in SMILES notation. Where two headings read alike, the source gives them in different places.

Consider `CC(C1CC1)n1ncc(C(=O)NCC#Cc2nn3c(N[C@@H]4CCN(C)C[C@@H]4F)cccc3c2CC(F)(F)F)c1N` (stereo partly drawn) [Compound 291, 5-amino-1-(1-cyclopropylethyl)-N-[3-(7-{[(3S,4R)-3-fluoro-1-methylpiperidin-4-yl]amino}-3-(2,2,2-trifluoroethyl)pyrazolo[1,5-a]pyridin-2-yl)prop-2-yn-1-yl]-1H-pyrazole-4-carboxamide], for which, at p53-Y220C mutant protein, the SC150 was 7 nM. Besides, the IC50 with NUGC-3 cells (setting [1]) was 249 nM.
Regarding `CN1CC[C@@H](Nc2cccc3c(CC(F)(F)F)c(C#CCNC(=O)c4cnn(CC5CC5)c4N)nn23)[C@@H](F)C1` [Compound 292], the SC150 on p53-Y220C mutant protein stood at 8 nM. The compound also had an IC50 with NUGC-3 cells of 214 nM.
On to `CN1CC[C@@H](Nc2cccc3c(CC(F)(F)F)c(C#CCNC(=O)c4ccc(N)nc4)nn23)[C@@H](F)C1` [Compound 296, 6-amino-N-[3-(7-{[(3S,4R)-3-fluoro-1-methylpiperidin-4-yl]amino}-3-(2,2,2-trifluoroethyl)pyrazolo[1,5-a]pyridin-2-yl)prop-2-yn-1-yl]nicotinamide], for which the SC150 at p53-Y220C mutant protein is 21 nM. In addition, the IC50 with NUGC-3 cells (setting [1]) was found to be 1230 nM.
The matching figures for `COC(C)(C)Cn1ccc(C(=O)NCC#Cc2nn3c(N[C@@H]4CCN(C)C[C@@H]4F)cccc3c2CC(F)(F)F)c1` [Compound 300, N-[3-(7-{[(3S,4R)-3-fluoro-1-methylpiperidin-4-yl]amino}-3-(2,2,2-trifluoroethyl)pyrazolo[1,5-a]pyridin-2-yl)prop-2-yn-1-yl]-1-(2-methoxy-2-methylpropyl)-1H-pyrrole-3-carboxamide]: 12 nM and 411 nM.
The matching figures for `CN1CC[C@@H](Nc2cccc3c(CC(F)(F)F)c(C#CCNC(=O)c4ccn5c4COCC5)nn23)[C@@H](F)C1` [Compound 301, N-[3-(7-{[(3S,4R)-3-fluoro-1-methylpiperidin-4-yl]amino}-3-(2,2,2-trifluoroethyl)pyrazolo[1,5-a]pyridin-2-yl)prop-2-yn-1-yl]-3,4-dihydro-1H-pyrrolo[2,1-c][1,4]oxazine-8-carboxamide]: 27 nM and 1190 nM.
The matching figures for `CN1CC[C@@H](Nc2cccc3c(CC(F)(F)F)c(C#CCNC(=O)c4cnn(C5CC5)c4N)nn23)[C@@H](F)C1` [Compound 305, 5-amino-N-[3-(7-{[(3S,4R)-3-fluoro-1-methylpiperidin-4-yl]amino}-3-(2,2,2-trifluoroethyl)pyrazolo[1,5-a]pyridin-2-yl)prop-2-yn-1-yl]-1-(cyclopropyl)-1H-pyrazole-4-carboxamide]: 7 nM and 193 nM.
As for `CC(C)n1ncc(C(=O)NCC#Cc2nn3c(N[C@@H]4CCN(C)C[C@@H]4F)cccc3c2CC(F)(F)F)c1N` [Compound 306, 5-amino-N-[3-(7-{[(3S,4R)-3-fluoro-1-methylpiperidin-4-yl]amino}-3-(2,2,2-trifluoroethyl)pyrazolo[1,5-a]pyridin-2-yl)prop-2-yn-1-yl]-1-isopropyl-1H-pyrazole-4-carboxamide], the SC150 on p53-Y220C mutant protein came out at 6 nM. For the same compound, the IC50 with NUGC-3 cells (setting [1]) is 142 nM.
The matching figures for `[2H]C([2H])([2H])N1CC[C@@H](Nc2cccc3c(CC(F)(F)F)c(C#CCNC(=O)c4cnn(C(C)(C)C)c4N)nn23)[C@@H](F)C1` [Compound 311, 5-amino-1-(tert-butyl)-N-[3-(7-{[(3S,4R)-3-fluoro-1-(methyl-d3)piperidin-4-yl]amino}-3-(2,2,2-trifluoroethyl)pyrazolo[1,5-a]pyridin-2-yl)prop-2-yn-1-yl]-1H-pyrazole-4-carboxamide]: 4 nM and 173 nM.
In the same order, the values of `CN1CC[C@@H](Nc2cccc3c(CC(F)(F)F)c(C#CCNC(=O)c4cc(F)n(C)c4)nn23)[C@@H](F)C1` [Compound 312, 5-fluoro-N-[3-(7-{[(3S,4R)-3-fluoro-1-methylpiperidin-4-yl]amino}-3-(2,2,2-trifluoroethyl)pyrazolo[1,5-a]pyridin-2-yl)prop-2-yn-1-yl]-1-methyl-1H-pyrrole-3-carboxamide] are 19 nM and 1460 nM.
